Read-outs that look alike come from different tables or passages of the source.
Legend:
Format in all cases: cell-based
[1] = target: Met (phospho-Met, HGF-stimulated PC-3 prostate cancer cells) (Homo sapiens (Human), UniProt P08581); test: Met autophosphorylation ELISA in PC-3 cells (Example F); conditions: cellular activity, read-out: c-Met IC50
In short: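 Serum-starved (3 h) PC-3 cells were treated 1 h with compounds (8-point curve, 0.3% DMSO), then stimulated with 100 ng/mL human HGF for 10 min. Lysate phospho-Met (panTyr) was measured by sandwich ELISA, normalised to DMSO and reference-inhibitor controls. IC50 came from 4-parameter logistic fit.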

[2] = target: KDR (phospho-KDR, VEGF165-stimulated HUVEC cells) (Homo sapiens (Human), UniProt P35968); test: KDR autophosphorylation ELISA in HUVEC cells (Example G); conditions: cellular activity
In short: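 Cells seeded, grown 24 h at 37 °C, starved 24 h serum-free; cpd 8-pt curve, 0.3% DMSO, 1 h; VEGF165 100 ng/mL, 5 min; cold PBS wash, lysis with orthovanadate and protease/phosphatase inhibitors; pKDR ELISA; IC50 by 4-parameter logistic regression.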

[3] = target: Mer (phospho-Mer, MERTK-transfected 293A cells) (Homo sapiens (Human), UniProt Q12866); test: Mer autophosphorylation ELISA in transient transfected 293A cells (Example H); conditions: cellular activity
In short: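 Human MERTK transiently transfected into 293A cells; compounds as 8-point dose curve in serum-free medium (0.3% DMSO final), 1 h. Lysates assayed by phospho-Mer sandwich ELISA against phospho-Mer standard; DMSO = 100%, reference inhibitor = 0% activity; IC50 from 4-parameter logistic fit.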

[4] = target: AXL (phospho-AXL, Gas6-stimulated A-172 glioblastoma cells) (Homo sapiens (Human), UniProt P30530); test: AXL autophosphorylation ELISA in A-172 cells (Example E); conditions: cellular activity, read-out: Axl IC50
In short: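 Phospho-AXL in lysates was quantified by ELISA, normalised to DMSO (100%) and reference inhibitor (0%) controls. IC50 by 4-parameter logistic fit.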

[5] = Met autophosphorylation ELISA in PC-3 cells
[6] = KDR autophosphorylation ELISA in HUVEC cells
[7] = Mer autophosphorylation ELISA in transient transfected 293A cells
[8] = AXL autophosphorylation ELISA in A-172 cells

KDR (phospho-KDR, VEGF165-stimulated HUVEC cells), sequence (P35968 20-1356): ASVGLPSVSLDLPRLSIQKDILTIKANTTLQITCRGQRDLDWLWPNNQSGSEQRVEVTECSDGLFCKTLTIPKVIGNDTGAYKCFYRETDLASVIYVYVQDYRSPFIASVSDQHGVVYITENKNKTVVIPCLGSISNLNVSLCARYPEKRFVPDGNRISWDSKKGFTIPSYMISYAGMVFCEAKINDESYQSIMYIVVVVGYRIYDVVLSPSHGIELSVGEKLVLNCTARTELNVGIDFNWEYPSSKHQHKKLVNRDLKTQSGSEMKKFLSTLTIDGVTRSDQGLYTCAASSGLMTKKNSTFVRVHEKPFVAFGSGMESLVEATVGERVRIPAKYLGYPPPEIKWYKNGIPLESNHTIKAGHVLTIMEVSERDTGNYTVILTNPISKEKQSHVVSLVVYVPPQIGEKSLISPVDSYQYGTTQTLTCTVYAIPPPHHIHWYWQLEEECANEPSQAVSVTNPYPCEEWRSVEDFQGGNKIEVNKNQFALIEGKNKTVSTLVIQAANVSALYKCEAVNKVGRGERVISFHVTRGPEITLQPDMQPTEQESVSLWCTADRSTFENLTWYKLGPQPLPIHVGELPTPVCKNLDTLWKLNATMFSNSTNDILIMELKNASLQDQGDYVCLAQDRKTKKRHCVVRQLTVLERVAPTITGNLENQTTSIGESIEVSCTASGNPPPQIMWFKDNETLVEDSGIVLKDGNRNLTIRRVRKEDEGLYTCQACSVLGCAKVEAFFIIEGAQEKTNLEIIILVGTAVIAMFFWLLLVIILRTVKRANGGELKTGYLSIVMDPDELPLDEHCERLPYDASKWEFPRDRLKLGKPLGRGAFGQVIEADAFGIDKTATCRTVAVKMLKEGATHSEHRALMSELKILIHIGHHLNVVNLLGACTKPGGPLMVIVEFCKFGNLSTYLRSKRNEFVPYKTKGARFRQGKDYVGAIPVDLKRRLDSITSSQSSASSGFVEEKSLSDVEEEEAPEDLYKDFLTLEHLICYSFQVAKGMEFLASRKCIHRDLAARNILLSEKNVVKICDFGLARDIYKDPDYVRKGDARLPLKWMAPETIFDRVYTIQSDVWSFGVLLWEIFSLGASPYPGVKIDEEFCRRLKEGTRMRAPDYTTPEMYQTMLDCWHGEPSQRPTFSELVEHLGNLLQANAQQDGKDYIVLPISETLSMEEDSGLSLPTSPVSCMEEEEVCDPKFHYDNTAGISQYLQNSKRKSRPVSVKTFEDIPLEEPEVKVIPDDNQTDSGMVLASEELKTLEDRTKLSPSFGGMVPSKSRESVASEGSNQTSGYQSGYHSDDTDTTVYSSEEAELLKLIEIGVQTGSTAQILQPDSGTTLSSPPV
Met (phospho-Met, HGF-stimulated PC-3 prostate cancer cells), sequence (P08581 25-1390): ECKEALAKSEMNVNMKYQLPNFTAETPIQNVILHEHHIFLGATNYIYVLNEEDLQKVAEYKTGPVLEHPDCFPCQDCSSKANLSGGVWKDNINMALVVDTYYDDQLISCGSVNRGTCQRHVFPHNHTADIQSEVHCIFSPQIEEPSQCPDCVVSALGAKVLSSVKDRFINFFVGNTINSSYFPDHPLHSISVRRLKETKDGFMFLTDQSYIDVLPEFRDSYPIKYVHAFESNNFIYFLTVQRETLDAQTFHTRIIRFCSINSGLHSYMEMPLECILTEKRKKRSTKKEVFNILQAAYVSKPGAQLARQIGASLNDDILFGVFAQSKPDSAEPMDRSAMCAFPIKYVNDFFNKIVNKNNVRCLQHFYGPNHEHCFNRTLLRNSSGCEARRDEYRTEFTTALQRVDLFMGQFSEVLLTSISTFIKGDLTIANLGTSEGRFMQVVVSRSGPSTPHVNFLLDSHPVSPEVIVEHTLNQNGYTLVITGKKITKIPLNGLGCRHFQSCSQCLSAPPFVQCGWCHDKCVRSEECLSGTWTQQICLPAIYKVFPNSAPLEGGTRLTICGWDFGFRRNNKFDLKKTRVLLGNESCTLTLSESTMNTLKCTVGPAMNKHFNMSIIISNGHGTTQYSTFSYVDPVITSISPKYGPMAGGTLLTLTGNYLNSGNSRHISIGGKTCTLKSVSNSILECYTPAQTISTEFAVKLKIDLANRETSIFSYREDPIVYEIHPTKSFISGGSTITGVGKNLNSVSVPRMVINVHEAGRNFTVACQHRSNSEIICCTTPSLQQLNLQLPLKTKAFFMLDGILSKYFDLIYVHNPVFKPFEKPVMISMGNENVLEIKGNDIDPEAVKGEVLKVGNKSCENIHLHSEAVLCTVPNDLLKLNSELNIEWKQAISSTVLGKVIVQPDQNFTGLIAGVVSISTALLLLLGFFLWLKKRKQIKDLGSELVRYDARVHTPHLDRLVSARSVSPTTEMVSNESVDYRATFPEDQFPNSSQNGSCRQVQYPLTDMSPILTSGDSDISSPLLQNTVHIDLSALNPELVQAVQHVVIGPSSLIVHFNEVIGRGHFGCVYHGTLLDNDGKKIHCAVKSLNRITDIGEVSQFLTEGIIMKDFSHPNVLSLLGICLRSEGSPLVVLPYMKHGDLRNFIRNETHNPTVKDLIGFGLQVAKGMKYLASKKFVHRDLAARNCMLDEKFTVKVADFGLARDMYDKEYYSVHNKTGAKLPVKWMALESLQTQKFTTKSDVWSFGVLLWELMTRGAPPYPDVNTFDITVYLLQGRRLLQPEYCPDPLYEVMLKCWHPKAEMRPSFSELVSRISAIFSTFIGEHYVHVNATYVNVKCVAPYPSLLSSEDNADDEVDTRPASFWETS
Mer (phospho-Mer, MERTK-transfected 293A cells), sequence (Q12866 21-999): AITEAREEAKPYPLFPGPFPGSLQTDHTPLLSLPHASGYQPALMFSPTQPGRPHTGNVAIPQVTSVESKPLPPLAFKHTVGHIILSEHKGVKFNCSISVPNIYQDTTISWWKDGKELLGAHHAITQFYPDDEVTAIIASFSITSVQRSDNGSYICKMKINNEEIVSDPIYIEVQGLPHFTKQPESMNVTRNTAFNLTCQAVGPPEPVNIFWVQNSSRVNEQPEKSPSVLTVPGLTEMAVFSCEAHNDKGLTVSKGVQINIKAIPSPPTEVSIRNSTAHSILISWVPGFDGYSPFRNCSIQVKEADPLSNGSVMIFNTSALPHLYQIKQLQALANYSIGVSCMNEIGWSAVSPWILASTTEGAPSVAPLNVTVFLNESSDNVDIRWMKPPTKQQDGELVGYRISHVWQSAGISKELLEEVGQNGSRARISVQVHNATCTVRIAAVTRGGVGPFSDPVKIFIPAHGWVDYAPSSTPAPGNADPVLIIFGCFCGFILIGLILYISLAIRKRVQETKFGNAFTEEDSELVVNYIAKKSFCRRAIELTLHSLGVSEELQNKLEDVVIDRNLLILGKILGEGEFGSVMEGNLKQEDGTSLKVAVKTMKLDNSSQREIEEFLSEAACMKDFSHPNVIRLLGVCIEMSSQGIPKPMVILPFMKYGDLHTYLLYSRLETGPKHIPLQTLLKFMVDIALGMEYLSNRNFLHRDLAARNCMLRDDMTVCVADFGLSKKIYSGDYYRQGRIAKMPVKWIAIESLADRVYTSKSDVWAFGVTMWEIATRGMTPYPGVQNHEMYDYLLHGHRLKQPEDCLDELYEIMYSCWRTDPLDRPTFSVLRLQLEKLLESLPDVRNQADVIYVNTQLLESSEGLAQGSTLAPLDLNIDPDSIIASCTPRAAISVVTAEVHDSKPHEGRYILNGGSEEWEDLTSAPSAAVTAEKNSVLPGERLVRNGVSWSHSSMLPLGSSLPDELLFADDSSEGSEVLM
AXL (phospho-AXL, Gas6-stimulated A-172 glioblastoma cells), sequence (P30530 26-894): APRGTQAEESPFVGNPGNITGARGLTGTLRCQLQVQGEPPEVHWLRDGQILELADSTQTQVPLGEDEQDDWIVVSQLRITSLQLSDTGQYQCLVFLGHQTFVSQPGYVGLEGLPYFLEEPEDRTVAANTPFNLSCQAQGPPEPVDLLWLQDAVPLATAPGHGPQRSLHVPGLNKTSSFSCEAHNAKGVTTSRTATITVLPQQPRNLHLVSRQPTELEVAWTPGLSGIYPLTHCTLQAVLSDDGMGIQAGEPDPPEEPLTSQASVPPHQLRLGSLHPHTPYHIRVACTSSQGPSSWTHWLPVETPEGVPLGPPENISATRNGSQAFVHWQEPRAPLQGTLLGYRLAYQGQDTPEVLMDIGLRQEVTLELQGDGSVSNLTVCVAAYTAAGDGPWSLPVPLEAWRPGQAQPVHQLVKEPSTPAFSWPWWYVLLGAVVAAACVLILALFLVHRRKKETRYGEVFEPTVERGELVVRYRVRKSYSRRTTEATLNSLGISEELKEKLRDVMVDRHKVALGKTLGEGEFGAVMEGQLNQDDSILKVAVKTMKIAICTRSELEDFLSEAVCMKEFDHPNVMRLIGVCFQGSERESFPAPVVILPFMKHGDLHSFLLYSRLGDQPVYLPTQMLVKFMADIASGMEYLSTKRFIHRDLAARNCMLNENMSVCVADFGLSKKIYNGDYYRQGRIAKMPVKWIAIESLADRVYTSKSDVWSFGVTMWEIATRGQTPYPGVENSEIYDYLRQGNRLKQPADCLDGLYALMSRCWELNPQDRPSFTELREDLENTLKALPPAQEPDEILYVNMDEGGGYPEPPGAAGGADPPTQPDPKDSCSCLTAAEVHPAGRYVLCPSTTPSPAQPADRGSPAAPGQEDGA

Row | SMILES | IC50 [1, 5] | IC50 [2, 6] | IC50 [3, 7] | IC50 [4, 8] | IC50 ([1]; PC-3 cells) | IC50 ([2]; HUVEC cells) | IC50 ([3]; transfected 293A cells) | IC50 ([4]; A-172 cells)
1 | COc1cc(F)ccc1-c1cn(CC(F)F)c(C)c(C(=O)Nc2ccc(Oc3ccnc4cc(OC)c(OC)nc34)c(F)c2)c1=O [Compound 810, 1-(2,2-difluoroethyl)-N-[4-[(6,7-dimethoxy-1,5-naphthyridin-4-yl)oxy]-3-fluorophenyl]-5-(4-fluoro-2-methoxyphenyl)-2-methyl-4-oxopyridine-3-carboxamide] |  |  |  |  | < 100 nM | < 100 nM | < 100 nM | < 100 nM
2 | COc1ccc(-c2c(C)ncc(C(=O)Nc3ccc(Oc4ccnc5cc(OC)cnc45)c(F)c3)c2O)c(F)c1 [Compound 700, N-[3-fluoro-4-[(7-methoxy-1,5-naphthyridin-4-yl)oxy]phenyl]-5-(2-fluoro-4-methoxyphenyl)-4-hydroxy-6-methylpyridine-3-carboxamide] | < 100 nM | < 100 nM | < 100 nM | > 300 nM |  |  |  | 
3 | COc1cc2nccc(Oc3ccc(NC(=O)c4c(C)n(C)c(C)c(-c5ccc(F)c(C)c5)c4=O)cc3F)c2nc1OC [Compound 821, N-[4-[(6,7-dimethoxy-1,5-naphthyridin-4-yl)oxy]-3-fluorophenyl]-5-(4-fluoro-3-methylphenyl)-1,2,6-trimethyl-4-oxopyridine-3-carboxamide] |  |  |  |  | < 100 nM | 100 to 300 nM | < 100 nM | < 100 nM
4 | CCOc1nc2c(Oc3ccc(NC(=O)c4c(C)nc(C)c(-c5ccc(F)cc5C)c4O)cc3)ccnc2cc1OC [Compound 674, N-[4-[(6-ethoxy-7-methoxy-1,5-naphthyridin-4-yl)oxy]phenyl]-5-(4-fluoro-2-methylphenyl)-4-hydroxy-2,6-dimethylpyridine-3-carboxamide] | < 100 nM | < 100 nM | < 100 nM | < 100 nM |  |  |  | 

Further lines, results first:

Row | IC50 [1, 5] | IC50 [2, 6] | IC50 [3, 7] | IC50 [4, 8] | IC50 ([1]; PC-3 cells) | IC50 ([2]; HUVEC cells) | IC50 ([3]; transfected 293A cells) | IC50 ([4]; A-172 cells) | SMILES
5 | < 100 nM | < 100 nM | < 100 nM | < 100 nM |  |  |  |  | COc1cnc2c(Oc3ccc(NC(=O)c4c(C)c(C)c(C)n(-c5ccc(F)cc5)c4=O)cc3)ccnc2c1 [Compound 317, 1-(4-Fluorophenyl)-N-[4-[(7-methoxy-1,5-naphthyridin-4-yl)oxy]phenyl]-4,5,6-trimethyl-2-oxopyridine-3-carboxamide]
6 | < 100 nM | > 300 nM | < 100 nM | < 100 nM |  |  |  |  | COc1cc2nccc(Oc3ccc(NC(=O)c4c(C)c(C(C)=O)cn(-c5ccc(F)cc5C)c4=O)cc3F)c2nc1OC [Compound 739, 5-acetyl-N-[4-[(6,7-dimethoxy-1,5-naphthyridin-4-yl)oxy]-3-fluorophenyl]-1-(4-fluoro-2-methylphenyl)-4-methyl-2-oxopyridine-3-carboxamide]
7 | < 100 nM | < 100 nM | < 100 nM | < 100 nM |  |  |  |  | COc1cc(NC(=O)c2cn(C)c(C)c(-c3ccc(F)cc3)c2=O)ccc1Oc1ccnc2cc(OC)c(OC)nc12 [Compound 762, N-[4-[(6,7-dimethoxy-1,5-naphthyridin-4-yl)oxy]-3-methoxyphenyl]-5-(4-fluorophenyl)-1,6-dimethyl-4-oxopyridine-3-carboxamide]
8 | < 100 nM | < 100 nM | < 100 nM | < 100 nM |  |  |  |  | COc1cc(F)ccc1-c1cnc(C)c(C(=O)Nc2ccc(Oc3ccnc4cc(OC)c(OC)nc34)c(F)c2)c1O [Compound 792, N-[4-[(6,7-dimethoxy-1,5-naphthyridin-4-yl)oxy]-3-fluorophenyl]-5-(4-fluoro-2-methoxyphenyl)-4-hydroxy-2-methylpyridine-3-carboxamide]
9 | < 100 nM | < 100 nM | < 100 nM | < 100 nM |  |  |  |  | COc1cnc2c(Oc3ccc(NC(=O)c4c(C)ncc(-c5ccc(F)cc5OC)c4O)cc3F)ccnc2c1 [Compound 793, N-[3-fluoro-4-[(7-methoxy-1,5-naphthyridin-4-yl)oxy]phenyl]-5-(4-fluoro-2-methoxyphenyl)-4-hydroxy-2-methylpyridine-3-carboxamide]

From US12371428B2 (Exelixis, Inc., priority 2019, dated 2025)
